According to paper PMC11123929, “A Comparative Study and Prediction of the Ex Vivo Permeation of Six Vaginally Administered Drugs across Five Artificial Membranes and Vaginal Tissue” (Molecules, 2024):

Legend:
[1] = Retention on reversed-phase C4 HPLC column as indication of tissue penetration; type: physicochemical; conditions: ACE C4 150 × 4.6 mm, MeOH-H2O 10:90, 0.5 mL/min, 40 °C
Procedure: Under the given conditions, it was assumed that the stationary phase simulates the tissue while the aqueous mobile phase represents the surrounding space. […] The analysis was carried out under isocratic conditions with a flow rate of 0.5 mL/min and a mobile phase consisting of MeOH-H2O at 10:90 (v/v).

[2] = Franz diffusion cell in vitro permeability, hybrid IPM-cellulose membrane
Text: (§1) There are many membranes available on the market that are grouped as cellulosic and polymeric. Taking into account those that are more convenient and economical, two synthetic membranes and their combinations were used. Synthetic PVDF (polyvinylidene difluoride) and cellulose acetate (Table S2) membranes were pre-treated according to the supplier’s instructions. Cellulose membranes were further treated to acquire their lipophilic properties. Thus, they were placed on a flat glass surface and completely coated with IPM (isopropyl myristate) solution. The cellulose membrane was allowed to incubate in the IPM solution for 30 min. After impregnation, the excess IPM solution was drained off, and the membrane was used for the in vitro experiments. To ensure that the procedure was carried out successfully, the cellulose membrane was weighed before and after pretreatment.
(§2) The in vitro permeability profile of each compound was evaluated using the Franz diffusion cell setup (PermeGear, Hellertown, PA, USA). Five distinct artificial membranes were placed between the donor (upper) and receiver (lower) chambers of cells, with an effective diffusion area of 4.9 cm^2 and a receptor volume of 20 mL; 1 mL of APIs solutions were placed in the donor compartment, which was sealed with Parafilm® to prevent any loss of moisture. The acceptor contained degassed PBS at pH 7.4. The procedure was performed under agitation at 90 rpm and at a temperature of 37 °C ± 0.2 °C.
(§3) At specified intervals (t = 2, 3, 4, 6, and 8 h), 0.5 mL of the samples was taken from the receptor compartment and replaced with an equal volume of freshly prewarmed receptor medium. The concentration of each API was quantified using the appropriate HPLC method (Section 4.1) without sample pretreatment. Blanks containing PBS were pretreated with the same procedure. Each sample was analyzed in triplicate, and its cumulative release over time was plotted (Figure 2). The steady-state flux (Jss) was determined by plotting the permeation of the API per unit area (μg/cm^2) against time (h) and calculating the slope of the linear portion of the resulting line. Equation (1) was applied to calculate the apparent permeability coefficient (cm/h) (Paap).

[3] = Ex vivo permeability in Franz diffusion cell, cow vaginal tissue
Procedure: Ex vivo experiments were conducted on cow vaginal mucosa sourced from a local slaughterhouse. Tissues with an exposure area of 0.19 cm^2 were placed in a Franz diffusion cell with the epithelial mucosa side facing the donor compartment. In the donor compartment, 200 μL of API’s solution in VFS (pH 4.5) was added (37 °C ± 0.2 °C), while the acceptor was filled with 5 mL of PBS at pH 7.4 (constant stirring at 100 rpm).
Samples were centrifuged at 2000× g for 10 min, and supernatants were analyzed using HPLC as described in Section 4.1.
The procedure for extracting the drug from the tissue was as follows: after the experiment was completed, each tissue was carefully removed from the Franz cell and immersed in 5 mL of methanol. It was then sonicated for 30 min, followed by 10 min of vertexing, another 30 min in the sonicator, and 10 min of vertexing. Finally, the samples were centrifuged for 20 min at 5000× g, and the supernatant was collected for analysis.

[4] = Franz diffusion cell in vitro permeability, cellulose membrane; conditions: for Cumulative Amount Permeated, Cellulose (Hydrophilic): after 8 h, mean ± SD (n = 3); for Papp (experimental, in vitro): cellulose membrane, Table 6, compared with PLS prediction; for Papp at 8 h: pH 7.4; for permeation order of the substance, Cellulose (Hydrophilic): rank among the six drugs by cumulative amount after 8 h
Text: as §1, §2, §3

[5] = Franz diffusion cell in vitro permeability, PVDF membrane; conditions: for Cumulative Amount Permeated, PVDF (Hydrophobic): after 8 h, mean ± SD (n = 3); for Papp at 8 h: pH 7.4; for permeation order of the substance, PVDF (Hydrophobic): rank among the six drugs by cumulative amount after 8 h
Text: as §1, §2, §3

[6] = cited from earlier work; for PSA: ref Pubchem [1]
[7] = Franz diffusion cell in vitro permeability, IPM-impregnated cellulose membrane; conditions: for Cumulative Amount Permeated, Impregnated IPM: after 8 h, mean ± SD (n = 3); for Papp at 8 h: pH 7.4; for permeation order of the substance, Impregnated IPM: rank among the six drugs by cumulative amount after 8 h
Text: as §1, §2, §3

[8] = Franz diffusion cell in vitro permeability, hybrid PVDF-cellulose membrane
Text: as §1, §2
as §3, with “Blanks containing PBS were pretreated with the same procedure.” left out, “Equation (1) was applied to calculate the apparent permeability coefficient (cm/h) (Paap).” left out

[9] = cited from earlier work
[10] = rank among the six drugs by cumulative amount after 8 h

Structure (SMILES) | Retention time (tr) in column C4 [1] [min] | diffusion profile in cellulose-IPM membrane [2] | tissue permeability / diffusion profile in vaginal tissue, ex vivo [3] | Acceptor's Mass ([3]; cow, 8 h) | Final Mass Donor ([3]; cow, 8 h) | Tissue Extraction ([3]; cow, 8 h) | Papp value / permeability / diffusion profile in cellulose membrane [4] | Cumulative Amount Permeated, Cellulose (Hydrophilic) [4] [μg/cm^2] | Papp (experimental, in vitro) [4] [×10⁻⁶ cm/s] | Papp at 8 h [4] [×10⁻⁶ cm/s] | permeation order of the substance, Cellulose (Hydrophilic) [4] | Cumulative Amount Permeated, PVDF (Hydrophobic) [5] [μg/cm^2] | Papp at 8 h [5] [×10⁻⁶ cm/s] | permeation order of the substance, PVDF (Hydrophobic) [5] | Tangible aqueous solubility (descriptive term) ([6]; ref European Pharmacopeia) | PSA [6] [Å2] | Cumulative Amount Permeated, Impregnated IPM [7] [μg/cm^2] | Papp at 8 h [7] [×10⁻⁶ cm/s] | permeation order of the substance, Impregnated IPM [7] | also measured
Clc1ccc(COC(Cn2ccnc2)c2ccc(Cl)cc2Cl)cc1 (stereo not shown) [ECO, econazole] | 9.94 | zero | zero | 0 mg | 0.2 (±0.01) mg | 0.01 (±0.001) mg | negligible | 1.7 | 0.239 | 0.239 | 5th | 15.3 | 0.0417 | 6th | very slightly soluble | 27 | 0.92 | 0.0389 | 4th | 
CCN(CC)CC(=O)Nc1c(C)cccc1C [LIDO, lidocaine] |  |  |  | 0.53 (±0.09) mg | 0.9 (±0.1) mg | 0.5 (±0.09) mg |  |  |  |  |  |  |  |  |  |  |  |  |  | 
Cc1ncc([N+](=O)[O-])n1CCO [METRO, metronidazole] | 3.93 |  |  | 0.65 (±0.08) mg | 0.01 (±0.001) mg | 1.4 (±0.2) mg |  | 3976.4 | 6.39 | 6.39 | 1st | 2008.4 | 2.5 | 1st | very soluble | 83.87 | 2373.1 | 3.89 | 1st | Cumulative Amount Permeated, PVDF-Cellulose ([8]; after 8 h, mean ± SD (n = 3)): 370.2 μg/cm^2; Papp at 8 h ([8]; pH 7.4): 1.11 ×10⁻⁶ cm/s; permeation order of the substance, PVDF-Cellulose [8, 10]: 3rd; Cumulative Amount Permeated, IPM-Cellulose ([2]; after 8 h, mean ± SD (n = 3)): 307.3 μg/cm^2; Papp at 8 h ([2]; pH 7.4): 0.556 ×10⁻⁶ cm/s; permeation order of the substance, IPM-Cellulose [2, 10]: 3rd; Papp at 8 h, 10 mg/mL ([3]; cow): 12.8 ×10⁻⁶ cm/s; Cumulative Amount Permeated, Tissue ([3]; cow, 8 h, 10 mg/mL): 3419.5 μg/cm^2; permeation order of the substance, Tissue ([3]; cow, 8 h, 10 mg/mL): 1st; Tangible aqueous solubility (value in brackets) ([6]; ref European Pharmacopeia): 5920 µg/mL
Clc1ccc(COC(Cn2ccnc2)c2ccc(Cl)cc2Cl)c(Cl)c1 (stereo not shown) [MICO, miconazole] | 10.2 | zero | zero | 0 mg | 0.26 (±0.02) mg | 0 mg | negligible and zero |  | 0 |  |  | 33.4 | 0.806 | 5th | very slightly soluble | 27 |  |  |  | 
CCCCCCCCCc1ccc(OCCOCCOCCOCCOCCOCCOCCOCCOCCO)cc1 [NONO, nonoxynol-9] | 39.48 | zero | does not penetrate the vaginal tissue at all and zero |  |  |  | negligible | 20.1 | 0.0556 |  | 4th | 1752.2 |  | 2nd | miscible with H2O | 103.3 |  |  |  | Tissue Extraction ([3]; drug extracted from tissue with methanol after the experiment): 0.15 (±0.05) mg; Acceptor's Mass ([3]; ex vivo, end of experiment): 0 mg; Final Mass Donor ([3]; ex vivo, end of experiment, mean ± SD (n = 3)): 1.85 (±0.2) mg
O=[N+]([O-])OCC(CO[N+](=O)[O-])O[N+](=O)[O-] [nitroglycerin] |  |  |  |  |  |  |  |  |  |  |  |  |  |  |  |  |  |  |  | log P [9]: 1.6
